Measured values: the METLIN SMRT retention time set (Domingo-Almenara et al. 2019)

assay: gradient 5% acetonitrile 3 min, to 50% in 2 min, to 85% in 15 min, held 3 min, 100 µL/min; conditions: column: Zorbax Extend-C18 2.1 x 50 mm; eluents: water / acetonitrile, 0.1% formic acid
Summary of the method: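 In both positive and negative ionization mode, a quadrupole time-of-flight mass spectrometer coupled to HPLC analyzed pure standards run in mixtures of ~100 molecules. The Zorbax Extend-C18 column (2.1 × 50 mm, 1.8 μm) was operated at 100 μL/min with water and acetonitrile, each containing 0.1% formic acid. The dead volume was 40 μL and the dwell volume 900 μL. Retention time came from adduct peaks that were computationally picked and individually inspected by hand.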

RP-LC retention time | SMILES
668 s | CCNC(=O)c1cc(-c2ccccc2)n[nH]1
727 s | Cc1cc(-c2nnc3sc(COc4ccc(F)cc4)nn23)n[nH]1
909 s | CSc1cccc(NC(=O)Cn2c(Nc3cc(C)cc(C)c3)nc(C)cc2=O)c1
709 s | COc1ccc2[nH]cc(CCN3CC(C(=O)NC4CCCC4)CC3=O)c2c1 (configuration not stated)
814 s | COc1ccc(C(=O)Nc2nc(-c3ccc4c(c3)NC(=O)CO4)c(C)s2)cc1OC
680 s | CNC(=O)[C@@H]1C[C@H](Oc2ccccc2)CN1C(=O)C1CCC1
921 s | CCOC(=O)C1CCN(C(=O)C(C)n2c(=O)c(C(F)(F)F)nc3ccccc32)CC1 (configuration not stated)
1100 s | CCc1nc(N2CCC(C(=O)NCc3ccc(F)c(Cl)c3)CC2)c2c(C)scc2n1
858 s | COc1ccccc1CNC(=O)c1nnc(-c2ccc(S(=O)(=O)N3CCOCC3)cc2)o1
680 s | O=C(O)c1nnn(-c2cc(F)cc(F)c2)c1-c1ccccn1
709 s | COc1ccc(NC(=O)Cn2nc3cc(C)nc(N4CCCC4)n3c2=O)cc1
654 s | CCS(=O)(=O)N1CCN(C(=O)c2cc(-c3ccc(OC)cc3)n[nH]2)CC1
887 s | CCOc1ccccc1C1C(C(=O)OC)=C(C)NC2=C1C(=O)c1ccccc12 (configuration not stated)
788 s | COc1ccc(NC(=O)CSc2nccc3c2ccn3Cc2ccc(F)cc2)cc1OC
997 s | Cc1ccccc1Nc1c(-c2c(F)cccc2Cl)nc2ccc(Br)cn12
815 s | CCNC(=O)N(CCOC)CC(=O)N1CCc2sccc2C1COc1ccccc1 (configuration not stated)
1130 s | Cc1ccc(-n2cc(C(=O)OCC(=O)OC(C)C)c3ccccc3c2=O)cc1
1020 s | Cc1cccc(N2CCN(S(=O)(=O)c3ccc(-c4nnc(C5CC5)o4)o3)CC2)c1
990 s | Cc1cc(Br)ccc1NC(=O)C(=O)Nc1ccc2nc3n(c(=O)c2c1)CCCCC3
711 s | NC(=O)C1CCN(C(=O)c2ccc3c(c2)CCN3S(=O)(=O)c2ccc(Cl)cc2)CC1
976 s | Cc1cccc(C)c1-n1ccn(Cc2nc(-c3ccc(F)c(Cl)c3)no2)c(=O)c1=O
717 s | CC(=O)N1CCc2cc(N3CC(C(=O)Nc4ccc(C)cc4F)CC3=O)ccc21 (configuration not stated)
760 s | COc1ccccc1NC(=O)CN1C(=O)NC2(CCCCC2)C1=O
1180 s | O=C(Nc1c(F)c(F)c(F)c(F)c1F)c1cc2sccc2n1Cc1ccc(F)cc1
622 s | CCOc1cccc(CN2C[C@@H]3C(=O)N(CCN4CCc5ccccc5C4)C(=O)[C@@H]3C2)c1
734 s | Cc1cc(NC(=O)C(=O)NCC(O)c2cccc3ccccc23)no1 (configuration not stated)
601 s | CNC(=O)c1cc(N2CCN(C)CC2)nc2c(C)cccc12
870 s | CNS(=O)(=O)c1ccc(Cl)c(-c2nnc(-c3ccccc3)o2)c1
689 s | CCn1cc(-c2ccncc2)cc1C(=O)NCc1ccc(SC)cc1
761 s | O=C(C1=NN(Cc2ccc(F)cc2)c2ccccc2S1(=O)=O)N1CCOCC1

Continued, molecule first:

SMILES | RP-LC retention time
Cc1cccc(CNC(=O)CCC(=O)N2CCSc3nc(C)cc(C)c32)c1 | 692 s
Cn1cnc2cc(-c3noc(C4CC(=O)N(c5cccc(Cl)c5)C4)n3)ccc21 (configuration not stated) | 697 s
Cc1ccsc1C(=O)Nc1cnc(N2CCCCC2)nc1 | 915 s
Cc1ccc2c(c1)N(Cc1nc(-c3ccc(Cl)cc3)no1)C(=O)CO2 | 1130 s
O=C(NCc1ccccn1)C1CCCN(c2ncnc3c2oc2ccccc23)C1 (configuration not stated) | 579 s
COc1ccc(-c2cn3cccnc3n2)cc1NC(=O)c1ccc(C(F)(F)F)cc1 | 778 s
CN1c2cc(Cl)ccc2C(=O)NC12CCN(C(=O)Nc1ccccc1F)CC2 | 770 s
Cc1ccc(NC(=O)Cn2cnc(C)c(C)c2=O)cc1F | 630 s
COCCN1CCCCc2cc(C(N)=O)sc21 | 708 s
O=C(CCCc1ccccc1)Nc1ccc2c(c1)CCC(=O)N2 | 724 s
O=c1c2ccccc2ncn1Cc1noc(Cc2ccc(Cl)cc2)n1 | 872 s
CCSc1nc2ccc(NS(=O)(=O)c3ccccc3Cl)cc2s1 | 1030 s
CN(C)c1ccc(CNC(=O)CN2CCN(C(=O)Nc3ccc(Br)cc3)CC2=O)cc1 | 611 s
CCC(C)N(CC(=O)N1CCc2sccc2C1COc1ccc(F)cc1)C(=O)COC (configuration not stated) | 906 s
COC(=O)c1nnn(-c2ccc(Cl)cc2)c1C(=O)OC | 908 s
CCOC(=O)C1=C(C)NC2=C(C(=O)C(C(=O)OC)C(C)C2)C1c1cccc(OC)c1 (configuration not stated) | 846 s
CCc1nc(-c2cc(S(=O)(=O)Nc3ccc(F)cc3Cl)c(C)s2)cs1 | 1130 s
COC(=O)c1cccc(C(=O)N2CCN(c3cccc(C)c3C)CC2)n1 | 916 s
COc1cc(NC(=O)[C@@H]2COCC(=O)N2Cc2ccc(OC)cc2OC)cc(OC)c1 | 702 s

SMILES | RP-LC retention time
CSc1ccc(-c2nc3cnccn3c2Nc2cccc(C(F)(F)F)c2)cc1 | 1020 s
CCC(C)NC(=O)CCCn1c(=O)c2cccn2c2ccccc21 (configuration not stated) | 760 s
O=c1n(CCOc2ccccc2)nc2ccc(S(=O)(=O)N3CCCC3)cn12 | 842 s
COc1ccc(Cn2cc(C(=O)O)nn2)cc1F | 641 s
COc1ccc2c(c1)C1(CCN(C(=O)c3cccc(Cl)c3)C1)C(=O)N2C (configuration not stated) | 831 s
COCC(=O)NCc1nnnn1C1CCCCC1 | 608 s
COc1ccc(NC(=O)c2c(O)c3cccnc3n(-c3ccc(F)cc3)c2=O)cc1Cl | 1250 s
CCOc1ccccc1NC(=O)N1CCC([C@@H]2[C@H](OC)C(=O)N2C(C)C)CC1 | 846 s
O=C(NC1CCCc2ccccc21)C1CCN(C(=O)c2cccn2-c2cccnc2)CC1 (configuration not stated) | 742 s
Cc1ccc(Cn2c(CN3CCC(C(=O)NCc4ccccn4)CC3)cc3ccccc32)cc1 | 655 s
Cc1ccc(NC(=O)CN2C(=O)CCCc3cc(S(=O)(=O)N4CCCC4)ccc32)cc1 | 855 s
COc1cc(C(=O)NCCc2c[nH]c3ccc(F)cc23)cc(OC)c1OC | 781 s
COc1ccc(OC)c(-c2cn3ccn(-c4cccc(F)c4)c(=O)c3n2)c1 | 835 s
Cc1noc(C2CN(S(=O)(=O)c3ccccc3)CC23CCOCC3)n1 (configuration not stated) | 767 s
O=C(NCc1ccc(Br)cc1)C1CCN(C(=O)C2Sc3ccccc3NC2=O)CC1 (configuration not stated) | 782 s
CC(C)(C)c1noc(-c2ccc(-n3cnc(C(=O)NCC4CC4)c3)nc2)n1 | 896 s
CCNc1nc(C)cc(N2CCN(S(=O)(=O)c3ccc(Cl)cc3)CC2)n1 | 735 s
CCCCS(=O)(=O)N1CCC(N2CC(F)(F)C[C@H]2COc2cccnc2)CC1 | 682 s
